According to patent publication US20110045101A1, “FUNGICIDAL SUBSTITUTED AZOLES” (E.I. Du Pont De Nemours and Company, priority 2009, published 2011):
Marks after values point to notes of the source that are not given here.

How the values were obtained:
Format in all cases: in vivo
Conditions in all cases: 100 = 100% disease control
[1] = system: Puccinia recondita f. sp. tritici; assay: Test H: wheat leaf rust, test suspension sprayed after inoculation of wheat seedlings, visual disease rating
How it was run: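 Wheat seedlings inoculated with P. recondita spores, held 24 h saturated at 20 °C, then 2 days in growth chamber at 20 °C; compound suspension (acetone/water with Trem 014) sprayed to run-off afterwards. Rated visually; 200 ppm (≈500 g/ha) unless marked *, which denotes 40 ppm.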

Alternaria solani = assay: Test D: tomato early blight, sprayed the day before inoculation, visual disease rating
How it was run: (§1)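 200 ppm run-off spray (500 g/ha equivalent); * = 40 ppm. Vehicle: acetone/water 50/50, 250 ppm Trem® 014.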

Septoria tritici = assay: Test G: wheat leaf blotch on wheat seedlings, sprayed the day before inoculation, visual disease rating
How it was run: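 Wheat seedlings were sprayed to run-off with test suspension (acetone/water plus surfactant), generally 200 ppm (≈500 g/ha), or 40 ppm where marked. Septoria tritici spores were inoculated the next day; plants were held 48 h at 24°C in saturated atmosphere, then 19 days at 20°C before visual disease rating.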

[2] = system: Erysiphe graminis f. sp. tritici; assay: Test J: wheat powdery mildew on wheat seedlings, sprayed the day before inoculation, visual disease rating
How it was run: as §1

Septoria nodorum = assay: Test F: wheat glume blotch on wheat seedlings, sprayed the day before inoculation, visual disease rating
How it was run: as §1

[3] = system: Puccinia recondita f. sp. tritici; assay: Test I: wheat leaf rust on wheat seedlings, sprayed the day before inoculation, visual disease rating
How it was run: as §1

Botrytis cinerea = assay: Test C: tomato Botrytis on tomato seedlings, sprayed the day before inoculation, visual disease rating
How it was run: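 Tomato seedlings were sprayed until run-off with test suspensions in acetone/water (50/50) carrying 250 ppm polyhydric alcohol ester surfactant. Standard dose was 200 ppm, with 40 ppm for marked entries.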

[4] = 200 ppm, 0 = no control relative to controls
[5] = 40 ppm (marked *), 0 = no control

| Compound | Test H disease control rating [1, 4] | Test D disease control rating (Alternaria solani; [4]) | Test G disease control rating (Septoria tritici; [4]) | Test J disease control rating [2, 4] | Test F disease control rating (Septoria nodorum; [4]) | Test I disease control rating [3, 4] | Test C disease control rating (Botrytis cinerea; [4]) | Test H disease control rating [1, 5] | Test D disease control rating (Alternaria solani; [5]) | Test G disease control rating (Septoria tritici; [5]) | Test J disease control rating [2, 5] | Test F disease control rating (Septoria nodorum; [5]) | Test I disease control rating [3, 5] | Test C disease control rating (Botrytis cinerea; [5]) |
| --- | --- | --- | --- | --- | --- | --- | --- | --- | --- | --- | --- | --- | --- | --- |
| Cc1nc(Br)c(Cc2ccc(F)cc2F)n1-c1ccc(Cl)cc1 [compound 404] | 0% | 0% | 99% | 98% | 0% | 97% | 100% |  |  |  |  |  |  |  |
| COc1cc(F)c(-c2c(Cl)nc(Cl)n2-c2ccc(C)cc2)c(F)c1Cl [compound 405] | 0% | 98% | 100% | 99% | 0% | 98% | 99% |  |  |  |  |  |  |  |
| COc1cc(F)c(-c2c(Cl)nc(Cl)n2-c2ccc(Cl)nc2)c(F)c1 [compound 406] | 100% | 100% | 93% | 100% | 100% | 100% | 100% |  |  |  |  |  |  |  |
| N#Cc1ccc(F)c(-c2c(Cl)nc(Cl)n2-c2ccc(Cl)cc2)c1F [compound 407] | 0% | 0% | 96% | 98% | 92% | 97% | 100% |  |  |  |  |  |  |  |
| CSc1sc(-c2c(Br)nc(Br)n2-c2ccc(Cl)cc2)cc1Br [compound 408] |  |  |  |  |  |  |  | 0* % | 0* % | 3* % | 0* % | 0* % | 0* % | 0* % |
| Fc1cc(-n2cnc(Br)c2-c2c(F)ccc(F)c2Cl)ccc1Cl [compound 409] | 0% | 9% | 100% | 98% | 0% | 96% | 100% |  |  |  |  |  |  |  |
| Cc1ccc(-n2cnc(Br)c2-c2c(F)ccc(F)c2Cl)cc1 [compound 410] | 0% | 99% | 100% | 100% | 0% | 99% | 98% |  |  |  |  |  |  |  |
| Cc1ccc(-n2cnc(Br)c2-c2c(F)ccc(F)c2F)cc1 [compound 411] | 0% | 100% | 99% | 100% | 0% | 99% | 100% |  |  |  |  |  |  |  |
| Cc1nc(Cl)n(-c2ccc(Cl)cc2)c1-c1c(F)ccc(F)c1F [compound 412] |  |  |  |  |  |  |  | 0* % | 100* % | 99* % | 99* % | 0* % | 74* % | 100* % |
| Cc1nc(Cl)n(-c2ccc(F)cc2)c1-c1c(F)ccc(F)c1F [compound 413] |  |  |  |  |  |  |  | 9* % | 99* % | 14* % | 0* % | 0* % | 0* % | 100* % |
| Cc1nc(Cl)n(-c2ccc(Cl)cc2)c1-c1c(F)ccc(F)c1Cl [compound 414] |  |  |  |  |  |  |  | 0* % | 99* % | 96* % | 100* % | 0* % | 93* % | 99* % |
| Cc1nc(C)n(-c2ccc(Cl)c(F)c2)c1-c1c(F)ccc(F)c1F [compound 415] |  |  |  |  |  |  |  | 0* % | 100* % | 99* % | 98* % | 0* % | 94* % | 100* % |
| Cc1nc(C)n(-c2ccc(Cl)cc2)c1-c1c(F)ccc(F)c1F [compound 416] |  |  |  |  |  |  |  | 0* % | 100* % | 97* % | 99* % | 0* % | 26* % | 100* % |
| Cc1nc(C)n(-c2ccc(F)cc2)c1-c1c(F)ccc(F)c1F [compound 417] |  |  |  |  |  |  |  | 9* % | 99* % | 89* % | 94* % | 0* % | 9* % | 100* % |
| CCc1cccc(-n2c(C)nc(Cl)c2-c2c(F)ccc(OC)c2F)c1 [compound 418] | 0% | 100% | 100% | 100% | 99% | 97% | 100% |  |  |  |  |  |  |  |
| COc1cc(F)c(-c2c(Cl)ncn2-c2ccccc2)c(F)c1 [compound 420] | 0% | 100% | 100% | 100% | 99% | 100% | 100% |  |  |  |  |  |  |  |
| Cc1nc(Cl)c(-c2ccc(Cl)c(F)c2)n1-c1ccc(F)cc1Cl [compound 421] | 0% | 98% | 100% | 100% | 0% | 100% | 100% |  |  |  |  |  |  |  |
| Cc1nc(Cl)c(-c2ccc(Cl)cc2)n1-c1ccc(F)cc1Cl [compound 422] | 0% | 100% | 100% | 100% | 60% | 99% | 100% |  |  |  |  |  |  |  |
| COc1cc(F)c(-n2c(C)nc(Cl)c2-c2ccc(Cl)cc2)c(F)c1 [compound 423] |  |  |  |  |  |  |  | 0* % | 0* % | 94* % | 99* % | 69* % | 91* % | 100* % |
| COc1cc(F)c(-c2c(Br)nn(C)c2-c2ccc(Cl)cc2)c(F)c1 [compound 424] | 0% | 100% | 100% | 100% | 99% | 94% | 100% |  |  |  |  |  |  |  |
| COc1ccc(F)c(-c2c(Cl)nc(C)n2-c2ccc(Cl)c(C)c2)c1F [compound 425] | 0% | 100% | 100% | 100% | 100% | 96% | 100% |  |  |  |  |  |  |  |
| COc1ccc(F)c(-c2c(Cl)nc(C)n2-c2cccc(OC(F)F)c2)c1F [compound 426] | 27% | 100% | 100% | 100% | 100% | 100% | 100% |  |  |  |  |  |  |  |
| CCc1cccc(-n2c(Cl)nc(Cl)c2-c2c(F)ccc(OC)c2F)c1 [compound 427] | 0% | 100% | 100% | 100% | 99% | 93% | 100% |  |  |  |  |  |  |  |
| COc1cc(F)c(-c2c(Cl)nc(Cl)n2-c2ccccc2)c(F)c1Cl [compound 428] | 0% | 100% | 99% | 100% | 0% | 100% | 100% |  |  |  |  |  |  |  |
| COc1cc(F)c(-c2c(Cl)nc(Br)n2-c2ccccc2)c(F)c1Br [compound 429] | 0% | 77% | 99% | 98% | 0% | 98% | 99% |  |  |  |  |  |  |  |
